{"source": "patent US20230355622A1", "about": "“METHODS OF CHEMOVACCINATION AGAINST PLASMODIUM INFECTIONS” (Merck Sharp & Dohme LLC, priority 2020, published 2023)", "key": {"[1]": {"tested_on": "P. falciparum salivary gland sporozoites", "test": "Chemoprophylaxis of humanised (FRG) mice infected with P. falciparum sporozoites (FIG. 10)", "format": "in vivo", "settings": "FRG mouse with human hepatocytes, 300,000 sporozoites i.v.; four oral treatments 100 mg/kg at day 5, 5.5, 6, 6.5", "method": "Four immunocompromised mice engrafted with human hepatocytes (FRG mice, Yecuris, OR, USA) were each infected intravenously with 300,000 freshly dissected P. falciparum salivary gland sporozoites. Three mice received no treatment, while one mouse received four oral treatments with 100 mg/kg Example 1A during P. falciparum liver stage development (at day 5, day 5.5, day 6 and day 6.5 post infection). […] On day 7 post infection all mice were bled, and the blood cultured under standard culture conditions at 4% hematocrit with 1% oxygen. Fresh hematocrit was added to the cultures each week to provide fresh host cells for infection, and cultures were analysed for the presence of blood parasites 2-3 times per week by inspection of Giemsa-stained thin blood smears."}, "parasite": {"tested_on": "parasite", "test": "Parasite LDH growth assay (Parasite Assay), antiparasite potency", "format": "cell-based", "settings": "72 h", "procedure,_shortened": "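Ring-stage parasites at 0.7% parasitemia and 2% haematocrit, in RPMI-Hepes/bicarbonate with 5% heat-inactivated human serum and 0.5% albumax, were added to compound-containing medium. Cultures grew 72 h at 37 °C in gassed humidified boxes. Plates were then frozen overnight at −80 °C, thawed 4 h, and growth was measured by LDH assay.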"}, "[2]": {"tested_on": "P. berghei sporozoites expressing mCherry and Luciferase (PbmCherryLuci)", "test": "Chemoprotection of BALB/c mice infected with PbmCherryLuci sporozoites (FIG. 1)", "format": "in vivo, Plasmodium berghei", "settings": "female BALB/c mice, 40,000 sporozoites i.v.; treated twice by oral gavage at 36 and 48 hours during liver infection; 30 days monitoring", "method": "(§1) 40,000 PbmCherryLuci sporozoites (or the indicated number of sporozoites) were inoculated i.v. and compounds were administered by oral gavage at indicated time points during liver infection. Liver infection levels and egress of parasites from the liver were measured by bioluminescence signal from the parasites using an In Vivo Imaging System (IVIS, Perkin Elmer) at the peak of liver infection (52 hours post infection, hpi), during liver egress (55 hpi) as well as during the first round of blood infection (65 hpi). Initiation of blood infection was also measured by flow cytometry at 65 hpi using the mCherry reporter to determine the parasitemia of this first round of blood infection. These analyses allowed quantification of the efficacy of drug killing of parasites in the liver (52 hpi), preventing their egress from the liver (55 hpi) or preventing their successful infection of the blood (65 hpi). Mice were monitored by giemsa stained thin blood smears for the presence of parasites in the blood for 30 days post infection. If no blood infection was seen during the subsequent 30 days, mice were declared cured of malaria infection.\nMice were infected with 40,000 P. berghei sporozoites expressing mCherry and Luciferase (PbmCherryLuci) and treated with Example 1A as described above. […]"}, "[3]": {"tested_on": "PbmCherryLuci salivary gland sporozoites in HepG2 human hepatoma cells", "test": "In vitro infection assay: immune serum inhibition of sporozoite infection of HepG2 cells (FIG. 3)", "format": "cell-based, Plasmodium berghei", "settings": "serum of five BALB/c mice immunised ten months prior, 1 in 20 dilution, 48 h, versus naive serum", "method": "To initiate the in vitro infection assay, 30,000 HepG2 human hepatoma cells were seeded into a 96-well plate format the day before infection. The day of infection, freshly dissected PbmCherryLuci salivary gland sporozoites were incubated with a 1 in 20 dilution of either naïve BALB/c serum (from n=5 mice) or immune serum (from n=5 mice) in culture media and added to HepG2 wells in technical triplicate. Serum samples were not pooled, so the response from five individual mice was analysed independently. Forty-eight hours after infection the infected cells were fixed with 4% formaldehyde and imaged using an Opera Phenix High Content Imager (PerkinElmer). The number of parasites in each well was counted using the mCherry reporter expressed by these parasites, the average number of parasites between the technical triplicates averaged for each serum sample, and the average for each mouse presented."}, "[4]": {"tested_on": "PbmCherryLuci sporozoites", "test": "Inhibition of liver to blood transition in C57BL/6 mice (FIG. 8)", "format": "in vivo, Plasmodium berghei", "settings": "oral gavage during liver infection", "method": "as §1\nC57BL/6 mice were administered Example 1A or Example 75A as described in the general experimental procedure."}, "PMX": {"molecular_target": "PMX (Plasmodium falciparum, UniProt Q8IAS0)", "sequence (Q8IAS0 222-573)": "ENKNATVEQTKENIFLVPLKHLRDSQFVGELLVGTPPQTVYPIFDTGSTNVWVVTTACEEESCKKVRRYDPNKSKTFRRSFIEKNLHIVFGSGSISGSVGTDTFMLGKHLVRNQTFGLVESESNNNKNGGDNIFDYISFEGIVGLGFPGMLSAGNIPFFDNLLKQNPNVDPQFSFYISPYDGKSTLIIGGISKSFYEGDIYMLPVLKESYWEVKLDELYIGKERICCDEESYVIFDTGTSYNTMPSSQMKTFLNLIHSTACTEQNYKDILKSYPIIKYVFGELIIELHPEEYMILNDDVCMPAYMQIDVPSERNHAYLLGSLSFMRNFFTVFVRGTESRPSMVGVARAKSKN", "settings": "P. falciparum parasites incubated with compound; SERA5 120 kDa, processed by SUB1", "excerpt": "SERA5 is a 120 kDa protein required for merozoite egress and is processed by subtilisin-like protease subtilisin 1 (SUB1) to release a soluble polypeptide of approximately 50 kDa (Pino, P., Caldelari, R., Mukherjee, B., Vahokoski, J., Klages, N., Maco, B., et al. (2017). A multistage antimalarial targets the plasmepsins IX and X essential for invasion and egress. Science 358, 522-528). […] SERA5 was included as a control in all subsequent experiments as a proxy for PMX-mediated activation of SUB1."}, "[5]": {"tested_on": "PbmCherryLuci sporozoites", "test": "Immunity after chemovaccination with increasing numbers of sporozoites, BALB/c mice (FIG. 5-7)", "format": "in vivo, Plasmodium berghei", "method": "To investigate how many sporozoites are required to develop immunity, female BALB/c mice (n=3/group) were infected intravenously (i.v.) with increasing numbers of PbmCherryLuci sporozoites and cured with 2×100 mg/kg doses of Example 1A. Three months later, the chemovaccinated mice were challenged with 10 PbmCherryLuci infected mosquito bites. […] Twelve months later, the chemovaccinated mice were challenged with 10 PbmCherryLuci infected mosquito bites."}}}
{"compound": "CCC1(CC)CC(=O)N(C2CCOc3ccc(C(=O)N[C@H]4CC(C)(C)Oc5ccccc54)cc32)C(=N)N1", "note": "(stereo partly drawn) [Example 1A, 4-(4,4-diethyl-2-imino-6-oxotetrahydropyrimidin-1(2H)-yl)-N—((S)-2,2-dimethylchroman-4-yl)chroman-6-carboxamide]", "values": [{"measurement": "blood parasites in culture of blood taken day 7 post infection", "setting": "[1]", "value": "remained negative for blood parasites over an eight-week observation period"}, {"measurement": "EC50", "setting": "parasite", "value": 0.5, "unit": "nM"}, {"measurement": "cure of infection / prevention of subsequent blood infection", "setting": "[2]", "value": "cured mice of infection"}, {"measurement": "inhibition of HepG2 infection by immune serum", "setting": "[3]", "value": "inhibition of infection using the serum from each of the five immunised mice"}, {"measurement": "infection of the blood", "setting": "[4]", "value": "completely prevented infection of the blood in all mice"}, {"measurement": "SERA5 processing", "setting": "PMX", "value": "accumulation of unprocessed SERA5 at 120 kDa"}, {"measurement": "mice with sterile protection from blood stage malaria infection", "setting": "[5]; BALB/c n=3/group, immunized with 500 sporozoites i.v., 2x100 mg/kg, 3-month challenge, 10 mosquito bites", "value": "1/3"}, {"measurement": "sterile protection from blood stage malaria infection", "setting": "[5]; challenge at 12 months (FIG. 7)", "value": "all mice showed sterile protection"}, {"measurement": "mice that developed malaria symptoms but showed partial immunity", "setting": "[5]; immunized with 500 sporozoites i.v., 2x100 mg/kg, 3-month challenge", "value": "2/3"}, {"measurement": "sterile protection from blood stage malaria infection", "setting": "[5]; immunized with 1,000 sporozoites i.v., 2x100 mg/kg, 3-month challenge", "value": "showed sterile protection from blood stage malaria infection"}, {"measurement": "sterile protection from blood stage malaria infection", "setting": "[5]; immunized with 40,000 sporozoites i.v., 2x100 mg/kg, 3-month challenge", "value": "showed sterile protection from blood stage malaria infection"}, {"measurement": "immunity on re-challenge", "setting": "[5]; mice immune at 3 months, re-challenged at 6 and 12 months post initial immunization", "value": "completely immune"}]}
